Results taken from US20240174638A1, “HETEROARYL DERIVATIVES AS APELIN RECEPTOR AGONISTS” (RESEARCH TRIANGLE INSTITUTE, priority 2021, published 2024).

Key:
[1] = in vitro; conditions: mouse, pH 7.4
[2] = in vitro; conditions: rat, pH 7.4
[3] = in vitro; conditions: human
[4] = system: Human plasma protein; conditions: 6 h, 1 μM
[5] = system: Rat plasma protein; conditions: 6 h, 1 μM
[6] = system: Mouse plasma protein; conditions: 6 h, 1 μM
[7] = system: Salmonella typhimurium (TA98, TA100, TA1535 and TA1537)
[8] = system: BLEO-induced lung fibrosis in male C57BL/6 mice; assay: Chronic (21-day) bleomycin-induced lung fibrosis model, prophylactic (Px) and therapeutic (Tx) arms; type: in vivo, mouse
[9] = relative to Vehicle-treated BLEO-instilled controls

| recovery at 6 h, 1 μM [1] [%] | recovery at 6 h, 1 μM [2] [%] | recovery at 6 h, 1 μM [3] [%] | % Protein Bound Rep 1 [4] [%] | % Protein Bound Rep 2 [4] [%] | % Protein Bound Rep 3 [4] [%] | Buffer Concentration Rep 1 [4] [nM] | Buffer Concentration Rep 2 [4] [nM] | Buffer Concentration Rep 3 [4] [nM] | Plasma Concentration Rep 1 [4] [nM] | Plasma Concentration Rep 2 [4] [nM] | Plasma Concentration Rep 3 [4] [nM] | % Protein Bound Rep 1 [5] [%] | % Protein Bound Rep 2 [5] [%] | % Protein Bound Rep 3 [5] [%] | Buffer Concentration Rep 1 [5] [nM] | Buffer Concentration Rep 2 [5] [nM] | Buffer Concentration Rep 3 [5] [nM] | % Protein Bound Rep 1 [6] [%] | % Protein Bound Rep 2 [6] [%] | SMILES | further results |
| --- | --- | --- | --- | --- | --- | --- | --- | --- | --- | --- | --- | --- | --- | --- | --- | --- | --- | --- | --- | --- | --- |
| 60.3 | 105 | 99.4 | −12.84 | −22.81 | −2.59 | 544.3 | 539.8 | 494.8 | 482.3 | 439.6 | 482.3 | −11.35 | −26.18 | −33.75 | 552.8 | 571.3 | 639.1 | 18.36 | 23.23 | CCCC(=O)Nc1ccc(OCC(O)CNC(C)C)c(C(C)=O)c1 (stereo not drawn) [Acebutolol] | Plasma Concentration Rep 1 [5]: 455.6 nM; Plasma Concentration Rep 2 [5]: 452.8 nM; Plasma Concentration Rep 3 [5]: 477.8 nM; % Protein Bound Rep 3 [6]: 20.05%; Buffer Concentration Rep 1 [6]: 274.4 nM; Buffer Concentration Rep 2 [6]: 258.1 nM; Buffer Concentration Rep 3 [6]: 268.1 nM; Mean % Protein Bound [6]: 20.50%; Plasma Concentration Rep 1 [6]: 336.0 nM; Plasma Concentration Rep 2 [6]: 336.2 nM; Plasma Concentration Rep 3 [6]: 335.3 nM |
|  |  |  |  |  |  |  |  |  |  |  |  |  |  |  |  |  |  |  |  | COc1ccc2nc3cc(Cl)ccc3c(NCCCNCCCl)c2c1 [ICR-191] | Cytotoxicity Code [7]: N; Mean Revertant Colony Counts ([7]; Salmonella typhimurium): 66.00; Ratio ([7]; Salmonella typhimurium): 28.33 |
|  |  |  |  |  |  |  |  |  |  |  |  |  |  |  |  |  |  |  |  | Cc1ccc(=O)n(-c2ccccc2)c1 [PIRF, Pirfenidone, reference compound] | 21-day survival rate ([8]; BLEO-instilled mice, Px PIRF 200 mg/kg/day p.o. BID): 94%; ΔBW ([8]; D0-D21, relative to Vehicle-treated BLEO-instilled controls): Neither EXAMPLE 22 nor PIRF affected; composite Collagen Volume Fraction (CVF) ([8]; Px PIRF 200 mg/kg/day, Vehicle 2.63±0.24%): 1.87±0.19%; composite Tissue Collagen Fraction (TCF) ([8]; Px PIRF 200 mg/kg/day, Vehicle 5.58±0.34%): 4.43±0.34%; LW indexed to tibia length (LW:TL) [8, 9]: Neither EXAMPLE 22 nor PIRF affected; endpoint lung OH-P content [8, 9]: Neither EXAMPLE 22 nor PIRF affected; endpoint lung weight (LW) [8, 9]: Neither EXAMPLE 22 nor PIRF affected; final BW [8, 9]: Neither EXAMPLE 22 nor PIRF affected; serial BW [8, 9]: Neither EXAMPLE 22 nor PIRF affected |
| 98.2 | 81.4 | 95.4 | 97.59 | 98.26 | 98.01 | 21.6 | 17.3 | 18.4 | 897.5 | 993.2 | 926.2 | 99.46 | 99.25 | 97.82 | 4.4 | 5.9 | 17.7 | 89.13 | 90.27 | CC(=O)CC(c1ccccc1)c1c(O)c2ccccc2oc1=O (stereo not drawn) [Warfarin] | Mean % Protein Bound [4]: 97.96%; Mean % Protein Bound [5]: 98.80%; % Protein Bound Rep 3 [6]: 91.02%; Buffer Concentration Rep 1 [6]: 91.8 nM; Buffer Concentration Rep 2 [6]: 89.5 nM; Buffer Concentration Rep 3 [6]: 82.3 nM; Mean % Protein Bound [6]: 90.10%; Plasma Concentration Rep 2 [6]: 919.8 nM; Plasma Concentration Rep 3 [6]: 917.0 nM |
